This note sets out measurements from patent US10144742B2 (Millennium Pharmaceuticals, Inc., priority 2014, dated 2018).

Assay [1] deals with hNAMPT protein (Homo sapiens (Human), UniProt P43490). In words: NAMPT enzyme assay (TR-FRET/HTRF, BodiPY ligand, anti 6His-Tb). It is filed as binding. The settings on record: for IC50: NAMPT IC50 range class, read-out: IC50; for inhibition at 1 µM: read-out: Percent Inhibition. In short, it runs like this:
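Compound or DMSO was incubated for 1 h at room temperature, protected from light, with BodiPY ligand and hNAMPT labelled by terbium anti-6His antibody. The 520 nm to 486 nm emission ratio after 320 nm excitation gave inhibition versus vehicle, from which concentration-response curves yielded IC50.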
A general note: TR-FRET usually uses a lanthanide donor and a delayed reading to cut background.

Assay [2] concerns PC3 cells. In words: PC3 growth inhibition (Cell-titer glo, 72 hours). It is filed as cell-based. The settings on record: Homo sapiens, read-out: Percent Inhibition (PC3 growth inhibition); for inhibition at 1.667 µM: compound concentration 1.667 μM. In short, it runs like this: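 Compounds in AIM serum-free medium were applied for 72 h at 37 °C, 5% CO2 to PC3 cells plated overnight from RPMI1640 culture. Luminescence after 10 min CellTiter-Glo, normalised to DMSO, gave % viability at 1 μM or 1.667 μM, or GI50/LD50.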

Where [3] appears, read: PC-3, compound concentration 1 μM, PC3 cells, 72 hours, Cell-titer glo.
Setting [4] is: PC-3, PC3 cells, 72 hours, Cell-titer glo.

Like-named read-outs stand apart in the source and are kept apart here. A value given as a limit tells only on which side of the number the result lay.

As usually defined, the IC50 is the concentration at which inhibition is half-maximal. In general, inhibition refers to the drop in the measured response relative to a control, in per cent.

Sequence of hNAMPT protein (P43490 whole entry): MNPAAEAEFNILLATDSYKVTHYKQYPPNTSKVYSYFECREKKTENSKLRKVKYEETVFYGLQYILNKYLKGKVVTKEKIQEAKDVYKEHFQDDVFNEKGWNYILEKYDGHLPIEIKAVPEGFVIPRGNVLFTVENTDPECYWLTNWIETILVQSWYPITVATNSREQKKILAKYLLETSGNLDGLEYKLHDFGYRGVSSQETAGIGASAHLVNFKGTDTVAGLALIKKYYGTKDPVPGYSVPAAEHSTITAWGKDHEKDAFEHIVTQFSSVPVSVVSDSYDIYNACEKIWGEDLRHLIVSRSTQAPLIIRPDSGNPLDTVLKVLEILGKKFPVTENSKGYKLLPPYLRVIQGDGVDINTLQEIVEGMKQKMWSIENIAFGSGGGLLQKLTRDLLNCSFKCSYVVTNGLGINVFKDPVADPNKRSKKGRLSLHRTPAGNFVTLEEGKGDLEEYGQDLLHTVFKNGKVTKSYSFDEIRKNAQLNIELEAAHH

For `Cn1cc(-c2nc3ccc(C(=O)NCCCn4ccnc4)cc3nc2-c2ccccc2)cn1` [Compound I-119, N-[3-(1H-imidazol-1-yl)propyl]-2-(1-methyl-1H-pyrazol-4-yl)-3-phenylquinoxaline-6-carboxamide], the IC50 in assay [1] lay within 0.5 to 1 µM. Further, the inhibition at 1 µM in assay [1] (compound concentration 1 μM) is 58%; in assay [2] (setting [3]), -8%.

`NCc1cccc(-c2nc3cc(C(=O)NCCCn4ccnc4)ccc3nc2-c2ccccc2)c1` [Compound I-120, 3-[3-(Aminomethyl)phenyl]-N-[3-(1H-imidazol-1-yl)propyl]-2-phenylquinoxaline-6-carboxamide]: in assay [1], the IC50 lay within 2 to 10 µM and the inhibition at 1 µM came out at 47%. The inhibition at 1 µM in assay [2] (setting [3]) is 1%.

As for `O=C(c1ccc2nc(-c3ccc(F)cc3)c(-c3ccc(F)cc3)nc2c1)N1CCc2nc[nH]c2C1` [Compound I-121, [2,3-bis(4-fluorophenyl)quinoxalin-6-yl](3,4,6,7-tetrahydro-5H-imidazo[4,5-c]pyridin-5-yl)methanone], in assay [1], the IC50 was in the range of 2 to 10 µM. In addition, the inhibition at 1 µM in assay [1] (compound concentration 1 μM) was determined as 12%; in assay [2] (setting [3]), 99%.

Take `O=C(NCCc1ncc[nH]1)c1ccc2nc(-c3ccc(F)cc3)c(-c3ccc(F)cc3)nc2c1` [Compound I-122, 2,3-Bis(4-fluorophenyl)-N-[2-(1H-imidazol-2-yl)ethyl]quinoxaline-6-carboxamide]: the IC50 in assay [1] lay within 2 to 10 µM. In assay [1] (compound concentration 1 μM), the inhibition at 1 µM came out at 60%. Besides, in assay [2] (setting [4]), the inhibition at 1.667 µM amounted to 4%.

As to `NC(=O)c1cn2c(n1)CN(C(=O)c1ccc3nc(-c4ccc(F)cc4)c(-c4ccc(F)cc4)nc3c1)CC2` [Compound I-123, 7-{[2,3-bis(4-fluorophenyl)quinoxalin-6-yl]carbonyl}-5,6,7,8-tetrahydroimidazo[1,2-a]pyrazine-2-carboxamide], in assay [1], the IC50 lay within 2 to 10 µM. Further, the inhibition at 1 µM in assay [1] (compound concentration 1 μM) stood at 31%; in assay [2] (setting [3]), 96%.

For `O=C(NCCCn1ccnc1)c1ccc2nc(-c3ccccc3)c(N3CCCC3)nc2c1` [Compound I-124, N-[3-(1H-imidazol-1-yl)propyl]-2-phenyl-3-(pyrrolidin-1-yl)quinoxaline-6-carboxamide], in assay [1], the IC50 is 1 to 2 µM. Moreover, the inhibition at 1 µM in assay [1] (compound concentration 1 μM) worked out at 38%; in assay [2] (setting [3]), 27%.

Consider `CS(=O)(=O)N1CCN(c2nc3ccc(C(=O)NCCCn4ccnc4)cc3nc2-c2ccccc2)CC1` [Compound I-125, N-[3-(1H-imidazol-1-yl)propyl]-2-[4-(methylsulfonyl)piperazin-1-yl]-3-phenylquinoxaline-6-carboxamide], for which, in assay [1], the IC50 fell in the range of 0.1 to 0.5 µM. The inhibition at 1 µM in assay [1] (compound concentration 1 μM) is 73%; in assay [2] (setting [3]), -7%.

In the case of `CN(c1nc2cc(C(=O)NCCCn3ccnc3)ccc2nc1-c1ccccc1)C1CC1` [Compound I-126, 3-[cyclopropyl(methyl)amino]-N-[3-(1H-imidazol-1-yl)propyl]-2-phenylquinoxaline-6-carboxamide], the IC50 in assay [1] fell in the range of 2 to 10 µM. Besides, the inhibition at 1 µM in assay [1] (compound concentration 1 μM) turned out to be 12%; in assay [2] (setting [3]) it was 93%.

For the compound `CN1CCN(c2nc3cc(C(=O)NCCCn4ccnc4)ccc3nc2-c2ccccc2)CC1=O` [Compound I-127, N-[3-(1H-imidazol-1-yl)propyl]-3-(4-methyl-3-oxopiperazin-1-yl)-2-phenylquinoxaline-6-carboxamide], the IC50 in assay [1] is 2 to 10 µM. Besides, the inhibition at 1 µM in assay [1] (compound concentration 1 μM) was 16%; in assay [2] (setting [3]) it was 95%.

Regarding `CN1CCN(c2nc3ccc(C(=O)NCCCn4ccnc4)cc3nc2-c2ccccc2)CC1` [Compound I-128, N-[3-(1H-imidazol-1-yl)propyl]-2-(4-methylpiperazin-1-yl)-3-phenylquinoxaline-6-carboxamide], in assay [1], the half-maximal inhibitory concentration (IC50) lay within 0.5 to 1 µM. The results for the inhibition at 1 µM in assay [1] (compound concentration 1 μM) and in assay [2] (setting [3]) were 60% and -7%, respectively.

Take `CS(=O)(=O)N1CCN(c2nc3cc(C(=O)NCCCn4ccnc4)ccc3nc2-c2ccccc2)CC1` [Compound I-129, N-[3-(1H-imidazol-1-yl)propyl]-3-[4-(methylsulfonyl)piperazin-1-yl]-2-phenylquinoxaline-6-carboxamide]: the IC50 in assay [1] is 0.1 to 0.5 µM. Also, the inhibition at 1 µM in assay [1] (compound concentration 1 μM) was 70%; in assay [2] (setting [3]), -6%.

As for `O=C(NCCc1ccccn1)c1ccc2nc(N3CCC(C4CCNCC4)CC3)c(-c3ccccc3)nc2c1` [Compound I-130, 2-(4,4′-Bipiperidin-1-yl)-3-phenyl-N-[2-(pyridin-2-yl)ethyl]quinoxaline-6-carboxamide], in assay [1], the IC50 lay in the range of 0.1 to 0.5 µM and the inhibition at 1 µM came out at 81%. In assay [2] (setting [3]), the inhibition at 1 µM was determined as 93%.

Regarding `N#Cc1ccc(-c2nc3ccc(C(=O)NCCCn4ccnc4)cc3nc2-c2ccccc2)cc1` [Compound I-131, 2-(4-cyanophenyl)-N-[3-(1H-imidazol-1-yl)propyl]-3-phenylquinoxaline-6-carboxamide], the IC50 in assay [1] lay in the range of 0.5 to 1 µM. The inhibition at 1 µM in assay [1] (compound concentration 1 μM) was 64%; in assay [2] (setting [3]) it was -8%.

Consider `O=C(NCc1ccc2[nH]cnc2c1)c1ccc2nc(N3CCOCC3)c(-c3ccc(F)cc3)nc2c1` [Compound I-132, N-(1H-Benzimidazol-5-ylmethyl)-3-(4-fluorophenyl)-2-(morpholin-4-yl)quinoxaline-6-carboxamide], for which, in assay [1], the IC50 fell in the range of 0.5 to 1 µM and the inhibition at 1 µM was 56%. For the same compound, the inhibition at 1.667 µM in assay [2] (setting [4]) was determined as 2%.

For `O=C(NCc1ccc2cn[nH]c2c1)c1ccc2nc(N3CCCCC3)c(-c3ccc(F)cc3)nc2c1` [Compound I-133, 3-(4-fluorophenyl)-N-(1H-indazol-6-ylmethyl)-2-(piperidin-1-yl)quinoxaline-6-carboxamide], the IC50 in assay [1] lay within 0.1 to 0.5 µM. Moreover, the inhibition at 1 µM in assay [1] (compound concentration 1 μM) is 68%. For the same compound, in assay [2] (setting [4]), the inhibition at 1.667 µM is 3%.

For the compound `COc1cccc(-c2nc3ccc(C(=O)NCCc4ncc[nH]4)cc3nc2-c2cccc(OC)c2)c1` [Compound I-134, N-[2-(1H-imidazol-2-yl)ethyl]-2,3-bis(3-methoxyphenyl)quinoxaline-6-carboxamide], the IC50 in assay [1] lay in the range of 0.5 to 1 µM. Moreover, the inhibition at 1 µM in assay [1] (compound concentration 1 μM) is 65%; in assay [2] (setting [3]), -3%.

For the compound `CC(=O)Nc1ccccc1-c1nc2cc(C(=O)NCCCn3ccnc3)ccc2nc1-c1ccccc1` [Compound I-135, 3-(2-acetamidophenyl)-N-[3-(1H-imidazol-1-yl)propyl]-2-phenylquinoxaline-6-carboxamide], the IC50 in assay [1] was in the range of 2 to 10 µM. Moreover, the inhibition at 1 µM was 16% in assay [1] (compound concentration 1 μM) and 101% in assay [2] (setting [3]).

On to `O=C(NCCCn1ccnc1)c1ccc2nc(N3CCC(N4CCCC4=O)CC3)c(-c3ccccc3)nc2c1` [Compound I-136, N-[3-(1H-imidazol-1-yl)propyl]-2-[4-(2-oxopyrrolidin-1-yl)piperidin-1-yl]-3-phenylquinoxaline-6-carboxamide], for which, in assay [1], the IC50 lay within 0.1 to 0.5 µM. The inhibition at 1 µM in assay [1] (compound concentration 1 μM) was 83%; in assay [2] (setting [3]), -7%.

Consider `O=C(NCCCn1ccnc1)c1ccc2nc(N3CCC3)c(-c3ccccc3)nc2c1` [Compound I-137, 2-(Azetidin-1-yl)-N-[3-(1H-imidazol-1-yl)propyl]-3-phenylquinoxaline-6-carboxamide], for which, in assay [1], the IC50 lay within 2 to 10 µM and the inhibition at 1 µM was determined as 18%. In assay [2] (PC-3, 72 h), the inhibition at 1 µM is 6%.

With `O=C(NCCCc1cncnc1)c1ccc2nc(N3CCCCC3)c(-c3ccc(F)cc3)nc2c1` [Compound I-138, 3-(4-fluorophenyl)-2-(piperidin-1-yl)-N-[3-(pyrimidin-5-yl)propyl]quinoxaline-6-carboxamide], the IC50 in assay [1] was in the range of 0.1 to 0.5 µM. Further, the inhibition at 1 µM in assay [1] (compound concentration 1 μM) stood at 86%. Further, the inhibition at 1.667 µM in assay [2] (setting [4]) was more than 99%.

With `O=C(NCCn1nnnc1S)c1ccc2nc(-c3ccc(F)cc3)c(-c3ccc(F)cc3)nc2c1` [Compound I-139, 2,3-bis(4-fluorophenyl)-N-[2-(5-sulfanyl-1H-tetrazol-1-yl)ethyl]quinoxaline-6-carboxamide], the IC50 in assay [1] is 1 to 2 µM. The inhibition at 1 µM in assay [1] (compound concentration 1 μM) was 41%; in assay [2] (setting [3]), 99%.

Turning to `O=C(NCCCn1ccnc1)c1ccc2nc(-c3ccc4c(c3)CCO4)c(-c3ccccc3)nc2c1` [Compound I-140, 2-(2,3-dihydro-1-benzofuran-5-yl)-N-[3-(1H-imidazol-1-yl)propyl]-3-phenylquinoxaline-6-carboxamide], the IC50 in assay [1] was 0.1 to 0.5 µM. The values for the inhibition at 1 µM in assay [1] (compound concentration 1 μM) and in assay [2] (setting [3]) were 79% and -8%, respectively.

In the case of `O=C(NCCCn1ccnc1)c1ccc2nc(C3=CCOCC3)c(-c3ccccc3)nc2c1` [Compound I-141, 2-(3,6-dihydro-2H-pyran-4-yl)-N-[3-(1H-imidazol-1-yl)propyl]-3-phenylquinoxaline-6-carboxamide], the IC50 in assay [1] was 0.1 to 0.5 µM. For the same compound, the inhibition at 1 µM in assay [1] (compound concentration 1 μM) is 74%; in assay [2] (setting [3]), -8%.

As for `N#Cc1nc2ccc(C(=O)NCCCn3ccnc3)cc2nc1-c1ccccc1` [Compound I-142, 2-Cyano-N-[3-(1H-imidazol-1-yl)propyl]-3-phenylquinoxaline-6-carboxamide], in assay [1], the IC50 was in the range of 2 to 10 µM and the inhibition at 1 µM was 24%. The inhibition at 1 µM in assay [2] (setting [3]) was determined as 95%.

For the compound `Cn1cnc2cc(-c3nc4cc(C(=O)NCCCn5ccnc5)ccc4nc3-c3ccccc3)ccc21` [Compound I-143, N-[3-(1H-imidazol-1-yl)propyl]-3-(1-methyl-1H-benzimidazol-5-yl)-2-phenylquinoxaline-6-carboxamide], in assay [1], the IC50 was in the range of 2 to 10 µM. Moreover, the inhibition at 1 µM in assay [1] (compound concentration 1 μM) is 3%; in assay [2] (setting [3]), 103%.
